Here are results for 1 molecule from article PMC9866588, “Novel 7-Chloro-4-aminoquinoline-benzimidazole Hybrids as Inhibitors of Cancer Cells Growth: Synthesis, Antiproliferative Activity, in Silico ADME Predictions, and Docking” (Molecules, 2023).

Data set [1] concerns MDCK1 (Madine–Darby canine kidney) cells. The data set is described as follows: MTT antiproliferative assay, MDCK1. The data set is classed as cell-based. The settings on record: mean ± SD of three independent experiments. How it is done:
(§1) The growth inhibition activity was assessed according to the slightly modified procedure performed at the National Cancer Institute, Developmental Therapeutics Program.
(§2) The examined compounds were dissolved in DMSO (1 × 10^−2 M). The experiments were carried out on seven human tumor cell lines and a normal cell line. The following cell lines were used: HeLa (human cervical adenocarcinoma; purchased from ATCC), CaCo-2 (human colorectal adenocarcinoma), MCF-7 (human breast adenocarcinoma), CCRF-CEM (human acute lymphoblastic leukemia), Hut78 (T-cell lymphoma), THP-1 (acute monocytic leukemia), Burkitt lymphoma (Raji), and MDCK1 (Madine–Darby canine kidney). The MDCK1 cells were used between 24 and 26 passages.
(§3) The adherent cells were cultured in Dulbecco’s modified Eagle medium—DMEM (Gibco, Termo Fisher Scientific Inc., Leicestershire, England, UK), supplemented with 10% heat-inactivated fetal bovine serum (FBS, Gibco, Termo Fisher Scientific Inc., Leicestershire, England, UK), 2 mM glutamine, and 100U/0.1mg penicillin/streptomycin. The cells in suspension were cultured in RPMI 1640 (Gibco, Termo Fisher Scientific Inc., Leicestershire, England, UK) medium, supplemented with 10% FBS (Gibco, Termo Fisher Scientific Inc., Leicestershire, England, UK), 2 mM glutamine, 1 mM sodium pyruvate, and 10 mM HEPES. The cells were grown in a humidified atmosphere under the conditions of 37 °C/5% of CO2 gas in the CO2 incubator (IGO 150 CELLlife^TM, JOUAN, Thermo Fisher Scientific, Waltham, MA, USA).
(§4) The adherent cells (HeLa, CaCo-2, MCF-7, and MDCK-1) were plated in 96-well flat bottom plates (Greiner, Frickenhausen, Austria) at a concentration of 2 × 10^4 cells/mL. The suspension cells (Raji, THP-1, CCRF-CEM and Hut78) were plated in 96-well microtiter plates (Sarstead, Newton, NC, USA) at a concentration of 1 × 10^5 cells/mL. Twenty-four hours later, the cells were treated with test agents in […] and incubated for a further 72 h. The working dilutions were freshly prepared on the day of testing. The solvent was also tested for eventual inhibitory activity by adjusting its concentration to be the same as in the working concentrations. After 72 h of incubation, the cell growth rate was evaluated by performing the MTT assay, which detects dehydrogenase activity in viable cells. For this purpose, upon completion of the incubation period, the growth medium was discarded and 50 μL of MTT was added to each well at a concentration of 5 mg/mL. After four hours of incubation at 37 °C, the water insoluble MTT-formazan crystals were dissolved in 150 μL of dimethyl-sulfoxide (DMSO) for the adherent cells and in 10% SDS with 0.01 mol/L HCl for the cells grown in suspension. The absorbance (OD, optical density) was measured on a microplate reader (iMark, BIO RAD, Hercules, CA, USA) at 595 nm.
(§5) The percentage of live cells was calculated as follows: % = OD (sample) − OD (background)/OD (control) − OD (background) × 100.
(§6) The optical density (OD) of the background for the adherent cells is the OD of the MTT solution and DMSO; the OD (background) for the suspension cells is the OD of the culture medium with MTT and 10% SDS with 0.01 mol/L HCl; the OD (control) is the OD of the cells grown without the tested compounds.
(§7) The calculation of the GI50 value curves and QC analysis was performed using the Excel tools and GraphPadPrism software (La Jolla, CA, USA), v. 5.03. Briefly, individual concentration effect curves are generated by plotting the logarithm of the concentration of the tested compounds (X) vs. the corresponding percent inhibition values (Y) using the least squares fit. The best-fit GI50 values are calculated using log (inhibitor) versus normalized response—variable slope equation, where Y Ľ 100/(1 ţ 10 ((LogIC50 _ X) × HillSlope)). The QC criteria parameters (Z0, S:B, R2, HillSlope) were checked for every GI50 curve.
(Tetrazolium assays rely on reduction of a dye to a coloured formazan, in cell work by metabolically active cells.)

The test system of data set [2] is HeLa (human cervical adenocarcinoma) cells. The data set is described as follows: MTT antiproliferative assay, HeLa. The data set is classed as cell-based. The conditions noted are these: 72 h, mean ± SD of three independent experiments. On the procedure:
as §1, §2, §3, §4, §5, §6, §7

Data set [3] deals with CaCo-2 (human colorectal adenocarcinoma) cells. Nature of the data set: MTT antiproliferative assay, CaCo-2. The format is cell-based. The conditions noted are these: 72 h, mean ± SD of three independent experiments. On the procedure: as §1, §2, §3, §4, §5, §6, §7
Data set [4] deals with MCF-7 (human breast adenocarcinoma) cells. The data set is described as follows: MTT antiproliferative assay, MCF-7. The data set is classed as cell-based. The settings on record: MCF7, 72 h, mean ± SD of three independent experiments. How it is done: as §1, §2, §3, §4, §5, §6, §7
The test system of data set [5] is CCRF-CEM (human acute lymphoblastic leukemia) cells. The data set is described as follows: MTT antiproliferative assay, CCRF-CEM. The format is cell-based. The settings on record: Homo sapiens, CCRF-CEM; 72 h, MTT, mean ± SD of three independent experiments. How it is done: as §1, §2, §3, §4, §5, §6, §7
In data set [6] the test system is Hut78 (T-cell lymphoma) cells. Nature of the data set: MTT antiproliferative assay, HuT78. The format is cell-based, human. On the procedure:
as §1, §2, §3, §4, §5, §6, §7

Data set [7] is described as follows: MTT antiproliferative assay, ranges stated over several cell lines. The data set is classed as cell-based. The settings on record: human (tumor cell lines) and dog (MDCK1); abstract, range over cell lines; read-out: GI50 range (strong cytotoxic activity). How it is done:
as §1, §2, §3, §4, §5, §6, §7

Data set [8] concerns normal (MDCK1) and tumor cell lines. Described as above. The data set is classed as cell-based. The conditions noted are these: MDCK1; range over tumor cell lines; read-out: GI50 range, tumor cell lines. On the procedure:
as §1, §2, §3, §4, §5, §6, §7

Data set [9] concerns HuT78 cells. The data set is described as follows: Flow cytometry analysis of cell cycle, HuT78. The data set is classed as cell-based, human. The settings on record: HuT78, 5 μM, 24 h. How it is done: To analyze the effects of the selected compounds (5d, 8d, and 12d) on the cell cycle of the HuT78 and THP-1 cells, the cells were seeded in 6-well plates (5 × 10^5 cells per well) and treated for 24 h with the selected compounds 5d and 12d (5 μM). The cells were then collected and fixed in cold 70% ethanol. The fixed samples were stained with 15 µg/mL of propidium iodide (PI) at room temperature and analyzed by flow cytometry (FACS Canto II, BD Biosciences). The results were analyzed using FlowLogic software.
One-way ANOVA analysis of variance was performed in the MedCalc statistical program for the analysis of the cell cycle. p-values of less than 0.05 were considered to be statistically significant.
(A flow cytometer gives signals particle by particle.)

Data set [10] relates to HuT78 cells. Nature of the data set: Annexin V-FITC/PI apoptosis detection. The data set is classed as cell-based, human. The settings on record: HuT78, 5 μM, 24 h. How it is done: The proapoptotic potential of compounds 5d and 12d was tested on the HuT78 cells using the Annexin V-FITC Apoptosis Staining/Detection Kit (ab14085; abcam, UK). The cells were plated in 6-well plates at a concentration of 5 × 10^5 cells/well and treated for 24 h with 12d at a concentration of 5 μM. After the incubation period, the cells were collected and centrifuged at 1100 rpm for 6 min, stained according to the manufacturer‘s protocol, and analyzed by flow cytometry (BD FACSCalibur, Becton Dickinson, San Jose, CA, USA) using FlowJo software (FlowJo, LLC, Ashland, OR, USA).

The GI50 is the concentration at which growth is held to half of that of the control. As for `Clc1ccc2c(Nc3cccc(-c4nc5ccccc5[nH]4)c3)ccnc2c1` [Compound 5d, N-(3-(1H-benzo[d]imidazol-2-yl)phenyl)-7-chloroquinolin-4-amine], the GI50 in [1] (72 h) was 20.4 ± 2.8 µM; in data set [1] (Canis lupus familiaris, MDCK1, 72 h), 11.4 to 20.4 µM; in data set [2], 0.7 ± 0.1 µM; in [3], 1 ± 0.1 µM; in data set [4], 33.6 ± 8.3 µM; in data set [5], 8.2 ± 6.2 µM. For the same molecule, the GI50 in data set [6] (Homo sapiens, HuT78, 72 h, MTT, mean ± SD of three independent experiments) is 0.4 ± 0.3 µM; in data set [8], 0.4 to 15.6 µM. Besides, the “tumor selectivity index (SI) HuT78” value in data set [6] (with respect to MDCK1 cells) was 51. For the same molecule, the 50% growth inhibitory concentration (GI50) at 72 h in [7] was 0.4 to 8 µM. Further, in the data set on HuT78 cells [9], the “proportion of polyploid giant cancer cells” value was “increased proportion”. Also, the “decrease in G0/G1 phase” value with HuT78 cells [9] (vs control) is reported as 5 times. In the data set on HuT78 cells [9] (vs control), the “increase in G2/M phase” value worked out at 2 times. The “increase of cells in subG0/G1 phase” value in the data set with HuT78 cells [9] (vs control) is reported as 13 times. In the data set with HuT78 cells [10], the cells alive entry is reported as “about 64%”. The “cells in early apoptosis” value with HuT78 cells [10] is listed as 24.75%. Moreover, in the data set with HuT78 cells [10], the “cells in late stage of apoptosis/necrosis” value worked out at 8.3%.
